For 80 molecules, viability results are on record in publication PMC12040169 (PLOS Biology, 2025).

The nature of this data set: in vitro. Particulars: human, hela cells, % viability.

As to `COc1ccc(Br)cc1/C=N/NC(=O)C1CC(c2ccccc2)(c2ccccc2)C1` [CBK263218], the viability at 28.5 h, 10 µM came to 88.8%.
The same measure, in the same setting: the value for `NNC(=O)CNC(c1cc(Br)ccc1N)c1ccccc1Cl` (centres unmarked) [CBK262977] was 87.1%.
Take `CN(C)c1cccc(C(=O)Nc2nc3ccc(S(N)(=O)=O)cc3s2)c1` [CBK287602]: the viability at 28.5 h, 10 µM turned out to be 95.8%.
As for `S=c1[nH]nc(-c2ccco2)n1-c1ccc(Cl)cc1` [CBK023586], the viability at 28.5 h, 10 µM worked out at 97.8%.
As for `COc1ccc(CN(C(=O)CCN2C(=O)c3ccccc3S2(=O)=O)c2ccccc2O)cc1` [CBK265973], the viability at 28.5 h, 10 µM was determined as 99.4%.
Still for that read-out and setting: under `CC1CCN(Cc2c(-c3cccnc3)[nH]c3cccnc23)CC1` [CBK281494] stands 98.8%; under `O=C1CSC2c3ccccc3C(=O)N2c2ccccc21` (centres unmarked) [CBK113670], 108%.
As for `COc1ccc(Cn2nc3nnc(-c4ccc(F)cc4)c(-c4ccc(F)cc4)n3c2=O)cc1` [CBK286183], the viability at 28.5 h, 10 µM amounted to 107%.
For `O=C(CSc1nc2ccccc2nc1N1CCCC1)N1CCN(c2ccccc2)CC1` [CBK293977], the viability at 28.5 h, 10 µM amounted to 86.5%.
As to `C=CCN1CCC(C(=O)NC(C)c2ccc(OC)c(OC)c2)CC1` (centres unmarked) [CBK148924], the viability at 28.5 h, 10 µM is 91.1%.
Turning to `COC(=O)c1ccccc1NC(=O)C(C)Oc1ccc(Cl)cc1C` (centres unmarked) [CBK262388], the viability at 28.5 h, 10 µM amounted to 79.2%.
Consider `CS(=O)(=O)Nc1nccnc1N1CCN(C(=O)c2ccno2)CC1` [CBK048861], for which the viability at 28.5 h, 10 µM was found to be 107%.
Take `Cc1ccc(C2(CN3CCN(Cc4cncn4C)CC3)CC2)cc1` [CBK283308]: the viability at 28.5 h, 10 µM was 107%.
For `N#CC(c1ccc(O)cc1)N1CCCCC1` (centres unmarked) [CBK028556], the viability at 28.5 h, 10 µM turned out to be 94.4%.
Take `Cc1cc(C)n(CCCN(C)Cc2ccc(N3CCCC3=O)cc2)n1` [CBK281827]: the viability at 28.5 h, 10 µM turned out to be 88.3%.
Take `CC(=O)N1CCC[C@H]2NC(=O)CNC(=O)C3(C/C=C/C[C@H]21)CCN(C(=O)c1ccon1)CC3` [CBK292057]: the viability at 28.5 h, 10 µM was 109%.
For the molecule `CC(C)Nc1nccnc1Sc1ccccc1O` [CBK089492], the viability at 28.5 h, 10 µM is 92.1%.
Still for that read-out and setting: under `O=c1ccc2c(-c3ccsc3)ccnc2[nH]1` [CBK073724] stands 91.5%; under `CC1(C)CC(N(Cc2ccncc2)Cc2ccoc2)CC(C)(C)N1` [CBK283269], 98.1%.
Consider `O=C(Nc1ccccc1)N[C@H]1CO[C@H]2[C@@H]1OC[C@H]2OC(=O)Nc1ccccc1` [CBK289465], for which the viability at 28.5 h, 10 µM is 89.1%.
Consider `Cc1nc(N)c(CNC2CCCCC2)c(O)n1` [CBK019809], for which the viability at 28.5 h, 10 µM turned out to be 112%.
As for `CCCn1nnc(NCc2ccc(Cl)cc2)n1` [CBK288089], the viability at 28.5 h, 10 µM stood at 97.2%.
Still for that read-out and setting: the value for `COC1C(O)C(CO)OC1n1cc(F)c(=O)[nH]c1=O` (centres unmarked) [CBK201253] was 91.4%; that for `CCOc1ccccc1C(=O)N1CCC(Cc2ccccc2-c2ccccc2)(C(N)=O)CC1` [CBK285910] was 89.6%.
On to `Cc1ccc(S(=O)(=O)Nc2ccc(Nc3cc(-c4cc(C(F)(F)F)cc(C(F)(F)F)c4)ncn3)cc2)cc1` [CBK090968], for which the viability at 28.5 h, 10 µM worked out at 99.6%.
With `O=S(=O)(Nc1nnn[nH]1)c1ccc(-c2cnco2)s1` [CBK062394], the viability at 28.5 h, 10 µM was determined as 109%.
As for `COc1ccc(-c2cc(C(=O)NCC(O)CO)cnc2-c2ccc(Cl)cc2)cn1` (centres unmarked) [CBK036645], the viability at 28.5 h, 10 µM worked out at 94%.
On to `CCCCCOc1nccnc1N1CCNCC1` [CBK001901G], for which the viability at 28.5 h, 10 µM came out at 103%.
For `Cc1ccc2[nH]c(Cc3ccc(NC(=O)c4nc5ccccc5n(C)c4=O)cc3)nc2c1` [CBK285802], the viability at 28.5 h, 10 µM came to 83.8%.
On to `Cc1cc(C(=O)Cn2nc(C(=O)O)c3ccccc3c2=O)c(C)n1Cc1ccccc1Cl` [CBK297504], for which the viability at 28.5 h, 10 µM was determined as 111%.
Regarding `CCCC(=O)c1ccc(S(=O)(=O)N2CCN(Cc3cccc(F)c3C)CC2)cc1` [CBK063152], the viability at 28.5 h, 10 µM was 88.4%.
Same read-out and setting: the value for `CN1CCC(NC(=O)c2cc3ccccc3[nH]2)CC1` [CBK168633] was 88.3%; that for `Cc1cc(C)c2nc(-c3ccccn3)cc(C(=O)Nc3cccc(Cn4cccn4)c3)c2c1` [CBK267723] was 90.4%.
On the same count and under the same terms, under `O=C(N[C@H]1CCN2C(=O)c3cc(-c4cccs4)ccc3NC(=O)[C@H]12)c1cccs1` [CBK289336] stands 91.8%; under `CC1CCc2nn(CCNC(=O)c3ccco3)c(=O)cc2C1` (centres unmarked) [CBK284481], 95.2%.
Regarding `CC(C)Nc1cncc(OCCCN(C)C)n1` [CBK115600], the viability at 28.5 h, 10 µM was found to be 105%.
Consider `CC(=O)NC1(c2ccc(F)cc2)CCN(C(=O)C(C)C)CC1` [CBK283491], for which the viability at 28.5 h, 10 µM worked out at 103%.
As for `Cc1cc(C)n(C2CCN(Cc3cnn(C4CCCCC4)c3)CC2)n1` [CBK281804], the viability at 28.5 h, 10 µM stood at 89.2%.
For `Cc1ccccc1N1CCN(C(=O)c2nn[nH]c2Nc2ccccc2F)CC1` [CBK288032], the viability at 28.5 h, 10 µM worked out at 101%.
For the molecule `CC(=O)Nc1cccc(-c2cncc(NCCc3ccccn3)n2)c1` [CBK065359], the viability at 28.5 h, 10 µM turned out to be 103%.
`c1ccc2nc(N3CCCC3)c(OCc3ccsc3)nc2c1` [CBK115819]: the viability at 28.5 h, 10 µM came out at 90.2%.
Turning to `COc1ccccc1NC(=N)Nc1nc(CSc2nc3ccccc3s2)cc(=O)[nH]1` [CBK269046], the viability at 28.5 h, 10 µM came out at 86%.
Regarding `O=S(=O)(c1ccc(-n2cnc(Cl)c2Cl)cc1)N1CCN(Cc2ccc(O)c(F)c2)CC1` [CBK062803], the viability at 28.5 h, 10 µM was 95.8%.
On to `CCNC(=O)Nc1ccc(-c2ccc(SC)cc2)c2ccccc12` [CBK083723], for which the viability at 28.5 h, 10 µM was determined as 90.4%.
As for `O=C(Cn1c(=O)n(Cc2cccs2)c2ncccc21)N1CCCC1` [CBK283894], the viability at 28.5 h, 10 µM came out at 83.6%.
Turning to `O=C(C1CCCC1)N1CCCC1c1nnc(-c2ccsc2)o1` (centres unmarked) [CBK285506], the viability at 28.5 h, 10 µM stood at 102%.
For `Cc1ccc(CN(CCCn2ccnc2)Cc2cccnc2)o1` [CBK283100], the viability at 28.5 h, 10 µM is 106%.
Turning to `Cc1cc(C)c(C(=O)N2CCN(CCNC(=O)C3CCCC3)CC2)[nH]1` [CBK305315], the viability at 28.5 h, 10 µM is 89.5%.
Same read-out and setting: under `O=C(O)CC(C(=O)Nc1ccc(Cl)cc1)C1CCCO1` (centres unmarked) [CBK264583] stands 94.2%; under `CCC1CCCCN1C(=O)c1cccc(OC)c1` (centres unmarked) [CBK081504], 98%; under `CN1CCCN(c2cncc(-c3ccc(F)cc3F)n2)CC1` [CBK065858], 97.9%.
Consider `CC(C)Nc1ccc(S(=O)(=O)N(Cc2ccccc2)Cc2ccccc2)cn1` [CBK267307], for which the viability at 28.5 h, 10 µM worked out at 84.6%.
With `CC1CCCC(N2CCN(Cc3ccccn3)CC2)C1` (centres unmarked) [CBK263450], the viability at 28.5 h, 10 µM came to 93%.
`N#CCCCCn1cc(NC(=O)NCCc2cccs2)cn1` [CBK044855]: the viability at 28.5 h, 10 µM stood at 100%.
Regarding `COc1ccc(C(=O)Nc2ccc(S(=O)(=O)Nc3nccs3)cc2)cc1I` [CBK263880], the viability at 28.5 h, 10 µM was found to be 92.7%.
For `CC(=O)N1CCC2(CC1)OCc1cc(-c3c(C)noc3C)ccc1O2` [CBK060896], under “bulk resorufin, single well”, the viability at 28.5 h, 10 µM amounted to 94.4%.
Regarding `CCN1CCN(Cc2c(O)ccc3c(=O)c(-c4ccccc4OC)c(C(F)(F)F)oc23)CC1` [CBK263692], the viability at 28.5 h, 10 µM stood at 87.6%.
Take `CCO[C@H]1CN(C)C[C@@H]1NC(=O)c1cccc2c1NCCC2` [CBK307269]: the viability at 28.5 h, 10 µM came to 90.4%.
The same measure, in the same setting: the value for `c1ccc2c(c1)OCC(COc1ccnc(N3CCCN(CC4CCCCC4)CC3)n1)O2` (centres unmarked) [CBK083982] was 115%; that for `CN(CCN1CCOCC1)c1nc2c(c(=O)[nH]1)Cc1ccccc1OC2` [CBK306783] was 75.4%; that for `COc1ccc(OC)c(NC(=O)c2ccc3nccnc3c2)c1` [CBK268997] was 106%.
In the case of `CC(C)(CC(=O)Nc1sc2c(c1C(=O)O)CCC2)CC(=O)Nc1sc2c(c1C(=O)O)CCC2` [CBK296100], the viability at 28.5 h, 10 µM was 92.3%.
Consider `COc1nccnc1N1CCN(CC(N)=O)CC1` [CBK084219], for which the viability at 28.5 h, 10 µM was 98.4%.
For the molecule `COc1ccccc1-c1noc(CCCC(=O)Nc2cccnc2)n1` [CBK268848], the viability at 28.5 h, 10 µM came out at 101%.
Turning to `C=CCNc1nccnc1-c1cnc(OC)nc1OC` [CBK036922], the viability at 28.5 h, 10 µM amounted to 91.7%.
The same measure, in the same setting: the value for `CC(=O)N1CCC(C(=O)NC(c2ccc3c(c2)OCO3)c2cccs2)CC1` (centres unmarked) [CBK059881] was 101%; that for `O=C(NCCCN1CCOCC1)c1cc(Cl)ccc1[N+](=O)[O-]` [CBK265470] was 108%.
As for `FC(F)(F)c1ccnc(SCc2ccc(Cl)c(Cl)c2)n1` [CBK103723], the viability at 28.5 h, 10 µM was found to be 85.6%.
`Cc1nn(Cc2ccc(F)cc2)c(C)c1NC(=O)c1cnn2c(C(F)(F)F)cc(-c3ccccc3)nc12` [CBK268231]: the viability at 28.5 h, 10 µM stood at 96.7%.
As for `Clc1cccc(Nc2cncc(-c3cccc4ccccc34)n2)c1` [CBK065764], the viability at 28.5 h, 10 µM came to 93.4%.
The same measure, in the same setting: under `O=C(CN1C(=O)CSc2ccccc21)Nc1ccccc1C(=O)N1CCOCC1` [CBK267343] stands 104%; under `COc1ccccc1-c1nccnc1NCc1ccc(C(F)(F)F)cc1` [CBK036788], 109%; under `Cc1cccc(CN(Cc2ccccc2)C(=O)CCc2ccncc2)n1` [CBK282101], 99.1%.
As to `COc1cc(NC(=O)C2CCCN2)ccc1-n1cccc1` (centres unmarked) [CBK282500], the viability at 28.5 h, 10 µM was found to be 85.4%.
Take `COc1cc(C(=O)Nc2ccc3c(c2)COC2(CCN(C(=O)OC(C)(C)C)CC2)O3)cc(OC)c1OC` [CBK091527]: the viability at 28.5 h, 10 µM (bulk resorufin, single well) is 85.9%.
As for `O=S(=O)(c1cccc(C(F)(F)F)c1)N1CCN(Cc2ccc3c(c2)OCO3)CC1` [CBK074594], the viability at 28.5 h, 10 µM amounted to 89.8%.
As to `NC(=O)CN1CCC(Oc2cncc(OCc3cccnc3)n2)C1` (centres unmarked) [CBK084459], the viability at 28.5 h, 10 µM turned out to be 98%.
As to `O=C(O)CNC(=O)/C(=C\c1ccc(F)cc1)NC(=O)c1ccco1` [CBK263718], the viability at 28.5 h, 10 µM was 96.4%.
For `O=C(O)CN(c1cccc([N+](=O)[O-])c1)S(=O)(=O)c1ccccc1` [CBK262684], the viability at 28.5 h, 10 µM was 85.6%.
With `CC(=O)c1ccc(-n2ncc(-c3ccc(F)cc3)n2)cc1` [CBK112889], the viability at 28.5 h, 10 µM worked out at 100%.
